From paper PMC4979595, “Pilot PET Study to Assess the Functional Interplay Between ABCB1 and ABCG2 at the Human Blood–Brain Barrier” (Clinical Pharmacology and Therapeutics, 2016)
Several values for one entry are separate records, joined by “and”; a condition that tells them apart may be missing. Identical values can stand only once. Like-named read-outs stand apart in the source and are kept apart here. Marks after values point to notes of the source that are not given here. Values belong to the compound of their own block, whether it stands above or below them.

Key:
[1] = Plasma protein binding by ultrafiltration; settings: similar in baseline and ABCB1 inhibition scans, high nonspecific filter binding
[2] = Plasma time-activity curve AUC of radiotracers; settings: c.421CC
Excerpt: (§1) A whole brain gray matter region of interest was defined on individual magnetic resonance images acquired in all study participants (T1‐weighted Achieva 3.0T scanner; Philips Medical Systems, Best, The Netherlands) using the Hammersmith n30r83 3D maximum probability atlas of the human brain.43 In addition, the pituitary gland was manually delineated.

[3] = Radiolabeled metabolites / unchanged radiotracer in plasma during PET (solid-phase extraction); settings: 60 minutes after injection, c.421CC subjects
[4] = test system: ABCB1 and ABCG2 at the human BBB; experiment: PET brain distribution of radiotracers, baseline scan and scan during ABCB1 inhibition with tariquidar infusion; settings: for K 1 / k 2 / k 3 / k 4: 2T4K model; for K 1 / k 2 / k 3 / k 4 / V T (2T4K) / V T (Logan): whole brain; for whole brain V T (Logan) lower than V T (Logan) in the pituitary gland: c.421CC subjects
Excerpt: as §1

human ABCG2 = target: T1, human ABCG2 (Homo sapiens, UniProt Q9UNQ0); experiment: In vitro uptake assay in MDCK-ABCG2 cells: tariquidar inhibition of ABCG2-mediated transport; assay type: cell-based; settings: for IC50: IC50 of tariquidar for inhibition of ABCG2 transport, 120 min uptake
T1 construct: P. Borst and Dr. A. Schinkel (Netherlands Cancer Institute); host or cells: MDCK-II (MDCK-ABCG2)
T1 sequence (Q9UNQ0 1-655): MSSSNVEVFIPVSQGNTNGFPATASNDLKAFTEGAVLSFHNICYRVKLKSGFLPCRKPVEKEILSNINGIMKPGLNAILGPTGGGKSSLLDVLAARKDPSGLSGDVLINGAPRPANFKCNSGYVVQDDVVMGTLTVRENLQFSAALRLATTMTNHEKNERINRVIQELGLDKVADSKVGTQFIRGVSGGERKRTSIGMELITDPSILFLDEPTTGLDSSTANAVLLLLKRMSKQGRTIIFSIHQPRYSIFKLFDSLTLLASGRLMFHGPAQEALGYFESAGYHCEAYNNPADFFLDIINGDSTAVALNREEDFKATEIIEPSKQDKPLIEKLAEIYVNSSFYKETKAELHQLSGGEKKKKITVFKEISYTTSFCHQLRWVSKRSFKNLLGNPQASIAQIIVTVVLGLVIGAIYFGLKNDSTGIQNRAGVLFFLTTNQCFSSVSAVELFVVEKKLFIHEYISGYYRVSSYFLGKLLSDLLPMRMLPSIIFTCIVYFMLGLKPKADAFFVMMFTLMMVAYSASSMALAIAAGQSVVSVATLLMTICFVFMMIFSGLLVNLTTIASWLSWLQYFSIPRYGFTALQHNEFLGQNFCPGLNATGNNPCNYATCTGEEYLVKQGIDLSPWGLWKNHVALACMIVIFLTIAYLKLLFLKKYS
Experimental: LLC‐PK1 cells transduced with human ABCB1 (LLC‐ABCB1) and MDCK‐II cells transduced with human ABCG2 (MDCK‐ABCG2) were kindly provided by Prof. P. Borst and Dr. A. Schinkel (Netherlands Cancer Institute, Amsterdam, Netherlands). Culturing of the cells and testing of vincristine sulfate resistance (0.64 μmol/L) for LLC‐ABCB1 cells and mitoxantrone resistance (20 μmol/L) for MDCK‐ABCG2 cells was performed as described previously.46
Cells were seeded with a density of 0.3 × 10^6 cells/cm^2 on 96‐well plates (white Isoplates for liquid scintillation counting, Perkin Elmer, Rodgau, Germany). Then 5–7 days after the cells reached 100% confluence, the experiment was initiated with 1‐hour preincubation at 37°C, 5% carbon dioxide, and 95% humidity, for which culture medium was replaced by serum‐free Opti‐MEM (Gibco/Life Technologies, Darmstadt, Germany). […] After 120 minutes (37°C, 5% carbon dioxide, 95% humidity), cells were transferred on ice, washed twice with ice‐cold phosphate‐buffered saline before lysis buffer (25 mmol/L Tris, pH 8, 50 mmol/L sodium chloride, 0.5% (w/v) deoxycholic acid, 0.5% (w/v) Triton X‐100) supplemented with complete protease inhibitor (Roche, Mannheim, Germany) was added and protein concentrations in the respective wells were determined by using the Pierce BCA Protein Assay kit (ThermoScientific, Pittsburgh, PA).
With Prism 6.0 software (GraphPad Software, La Jolla, CA), a sigmoidal model with variable slope was used to analyze concentration–response relationships by nonlinear regression.

[5] = Safety monitoring: adverse events during study participation; assay type: in vivo, human; settings: relationship with tariquidar administration could not be excluded
Experimental: During the PET study, heart rate and blood pressure were repeatedly measured and recorded. In addition, clinical laboratory blood and urine tests were performed. Adverse events were recorded.

human ABCB1 [6] = target: T2, human ABCB1 (Homo sapiens, UniProt P08183)
T2 sequence (P08183 whole entry): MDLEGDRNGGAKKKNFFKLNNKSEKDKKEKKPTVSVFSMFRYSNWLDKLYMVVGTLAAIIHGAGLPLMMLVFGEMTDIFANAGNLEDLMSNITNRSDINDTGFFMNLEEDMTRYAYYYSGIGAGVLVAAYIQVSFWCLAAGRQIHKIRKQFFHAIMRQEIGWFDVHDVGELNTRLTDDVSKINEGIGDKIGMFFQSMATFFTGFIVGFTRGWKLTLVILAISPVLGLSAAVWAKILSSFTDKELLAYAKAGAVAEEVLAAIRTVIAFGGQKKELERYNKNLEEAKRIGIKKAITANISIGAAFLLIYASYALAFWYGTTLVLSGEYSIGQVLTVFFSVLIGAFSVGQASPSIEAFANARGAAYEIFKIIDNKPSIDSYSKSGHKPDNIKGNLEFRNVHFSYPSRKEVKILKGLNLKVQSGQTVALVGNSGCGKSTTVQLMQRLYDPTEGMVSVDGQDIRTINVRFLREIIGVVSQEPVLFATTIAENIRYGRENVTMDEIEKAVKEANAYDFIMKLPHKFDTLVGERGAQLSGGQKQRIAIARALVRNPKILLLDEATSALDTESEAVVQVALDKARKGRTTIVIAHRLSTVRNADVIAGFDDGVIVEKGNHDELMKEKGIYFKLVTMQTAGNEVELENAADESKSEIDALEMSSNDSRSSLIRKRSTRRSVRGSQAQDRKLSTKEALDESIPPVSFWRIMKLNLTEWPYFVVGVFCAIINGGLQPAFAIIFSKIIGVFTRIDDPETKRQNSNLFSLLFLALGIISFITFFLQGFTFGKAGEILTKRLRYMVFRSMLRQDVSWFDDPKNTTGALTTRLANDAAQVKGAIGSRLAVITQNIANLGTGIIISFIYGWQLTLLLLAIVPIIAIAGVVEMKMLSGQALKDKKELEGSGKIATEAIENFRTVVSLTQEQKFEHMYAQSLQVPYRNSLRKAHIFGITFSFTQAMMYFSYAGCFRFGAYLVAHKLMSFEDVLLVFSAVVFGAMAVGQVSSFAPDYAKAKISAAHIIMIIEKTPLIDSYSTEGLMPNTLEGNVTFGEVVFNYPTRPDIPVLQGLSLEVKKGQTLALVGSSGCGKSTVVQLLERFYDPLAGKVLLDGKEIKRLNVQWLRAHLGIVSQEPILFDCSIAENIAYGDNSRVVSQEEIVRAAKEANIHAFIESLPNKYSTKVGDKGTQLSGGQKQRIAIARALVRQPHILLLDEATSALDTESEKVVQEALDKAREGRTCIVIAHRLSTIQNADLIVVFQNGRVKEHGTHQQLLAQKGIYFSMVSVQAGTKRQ

[7] = set-up: method as in earlier work; settings: (R)-[^11C]verapamil group, no ABCG2 genotype available, data from previous study, cited from earlier work
ABCB1 at the human BBB = test system: ABCB1 at the human BBB; set-up: method as in PMID 25669913; settings: tariquidar plasma concentration; previously estimated; read-out: in vivo IC50 for inhibition of ABCB1 transport of (R)-[^11C]verapamil at the human BBB; cited from earlier work
human ABCB1 [8] = target: T2, human ABCB1; experiment: cell-based
[9] = Tariquidar plasma concentrations during second PET scan (LC-MS/MS)
[10] = test system: ABCB1 and ABCG2 at the human BBB; settings: in vivo
Excerpt: as §1

in vitro = settings: human, plasma

Plasma protein binding [1]: > 99%
AUC ABCB1 inhibition (plasma time-activity curve) ([2]; 0 to 60 min): 46.9 ± 8.0 SUV x min
AUC baseline (plasma time-activity curve) ([2]; 0 to 60 min): 37.2 ± 6.2 SUV x min
% change over baseline (plasma AUC) [2]: 27 ± 12%
percentage of unchanged radiotracer in plasma ([3]; baseline scans): 94.6 ± 2.3%
percentage of unchanged radiotracer in plasma ([3]; second PET scan (tariquidar infusion)): 94.7 ± 1.1%
K 1 ([4]; c.421CC ABCB1 inhibition): 0.013 ± 0.005 (8) mL/(g x min)
k 2 ([4]; c.421CC ABCB1 inhibition): 0.302 ± 0.250 (31) 1/min
k 3 ([4]; c.421CC ABCB1 inhibition): 0.198 ± 0.050 (21) 1/min
k 4 ([4]; c.421CC ABCB1 inhibition): 0.016 ± 0.003 (13) 1/min
K 1 ([4]; c.421CC baseline): 0.006 ± 0.002 (9) mL/(g x min)
k 2 ([4]; c.421CC baseline): 0.135 ± 0.050 (33) 1/min
k 3 ([4]; c.421CC baseline): 0.148 ± 0.040 (22) 1/min
k 4 ([4]; c.421CC baseline): 0.015 ± 0.004 (17) 1/min
whole brain V T (Logan) lower than V T (Logan) in the pituitary gland ([4]; scan 1 (baseline)): 13.2 ± 4.6 fold
whole brain V T (Logan) lower than V T (Logan) in the pituitary gland ([4]; scan 2 (ABCB1 inhibition)): 7.9 ± 2.1 fold
baseline whole brain V T (Logan) lower in humans than in rats ([4]; comparison with a previous preclinical study): ~2 fold
V T (Logan) in the pituitary gland during tariquidar infusion as compared with baseline scans ([4]; pituitary gland): not significantly different
increase in V T (Logan) in scan 2 ([4]; single c.421CA subject with the highest increase (scanned with both radiotracers)): 2.3 fold
V T (2T4K) ([4]; c.421CC ABCB1 inhibition): 0.676 ± 0.111 (6)
V T (Logan) ([4]; c.421CC ABCB1 inhibition): 0.658 ± 0.098 (9)
V T (2T4K) ([4]; c.421CC baseline): 0.492 ± 0.051 (9)
V T (Logan) ([4]; c.421CC baseline): 0.478 ± 0.027 (6)
SMILES: COc1cc2c(cc1OC)CN(CCc1ccc(NC(=O)c3cccc4c(=O)c5cccc(OC)c5[nH]c34)cc1)CC2 [[^11C]elacridar]

IC50 (human ABCG2; [^3H]elacridar (1 nmol/L) as substrate): 813 nM
IC50 (human ABCG2; [^3H]tariquidar (1 nmol/L) as substrate): 310 nM
Hill slope (human ABCG2; [^3H]elacridar as substrate): 1.1
Hill slope (human ABCG2; [^3H]tariquidar as substrate): 1.1
IC50 (human ABCB1 [6]): 17.1 nM
IC50 (human ABCB1 [8]): 29.5 nM
Tariquidar plasma concentration during the PET scan (average of three determinations) ([9]; [^11C]elacridar group, c.421CC, i.v. infusion, total dose 5.7 ± 0.8 mg/kg): 2.6 ± 0.5 µmol/L
Tariquidar plasma concentration at the time of PET ([9]; [^11C]tariquidar group, c.421CA, i.v. infusion): 3.2 ± 0.4 µmol/L
Tariquidar concentration in plasma of individual subjects ([9]; end of PET, [^11C]elacridar c.421CA): 2.22 µmol/L
Tariquidar concentration in plasma of individual subjects ([9]; middle of PET, [^11C]elacridar c.421CA): 2.23 µmol/L
Tariquidar concentration in plasma of individual subjects ([9]; start of PET, [^11C]elacridar c.421CA): 1.94 ^a µmol/L
SMILES: COc1cc2c(cc1OC)CN(CCc1ccc(NC(=O)c3cc(OC)c(OC)cc3NC(=O)c3cnc4ccccc4c3)cc1)CC2 [tariquidar]
Adverse event: abdominal cramps and vomiting [5]: one
Adverse event: collapse [5]: four
Adverse event: dizziness [5]: two
Adverse event: dysgeusia [5]: 10 subjects
Adverse event: headache [5]: three
Adverse event: phlebitis [5]: three
Tariquidar concentration in plasma of individual subjects ([7]; end of PET): 3.76 µmol/L and 2.52 µmol/L and 4.11 µmol/L and 2.83 µmol/L and 3.38 µmol/L
Tariquidar concentration in plasma of individual subjects ([7]; middle of PET): 3.61 µmol/L and 2.71 µmol/L and 3.88 µmol/L and 2.85 µmol/L and 2.56 µmol/L
Tariquidar concentration in plasma of individual subjects ([7]; start of PET): 2.81 µmol/L and 1.70 µmol/L and 2.36 µmol/L and 1.91 µmol/L and 2.11 µmol/L
IC50 (ABCB1 at the human BBB): 2300 ± 1000 nM
Tariquidar concentration in plasma of individual subjects ([9]; end of PET, [^11C]elacridar c.421CC): 2.45 µmol/L and 1.98 µmol/L and 2.58 µmol/L and 2.72 µmol/L and 4.03 µmol/L
Tariquidar concentration in plasma of individual subjects ([9]; end of PET, [^11C]tariquidar c.421CA): 3.67 µmol/L and 3.18 µmol/L and 2.24 µmol/L and 3.08 µmol/L and 3.79 µmol/L
Tariquidar concentration in plasma of individual subjects ([9]; end of PET, [^11C]tariquidar c.421CC): 2.71 µmol/L and 2.78 µmol/L and 3.13 µmol/L and 3.70 µmol/L
Tariquidar concentration in plasma of individual subjects ([9]; middle of PET, [^11C]elacridar c.421CC): 2.33 µmol/L and 2.55 µmol/L and 2.71 µmol/L and 2.43 µmol/L and 3.73 µmol/L
Tariquidar concentration in plasma of individual subjects ([9]; middle of PET, [^11C]tariquidar c.421CA): 3.93 µmol/L and 3.55 µmol/L and 3.31 µmol/L and 2.86 µmol/L and 3.57 µmol/L
Tariquidar concentration in plasma of individual subjects ([9]; middle of PET, [^11C]tariquidar c.421CC): 2.68 µmol/L and 2.09 µmol/L and 2.95 µmol/L and 2.70 µmol/L and 2.65 µmol/L
Tariquidar concentration in plasma of individual subjects ([9]; start of PET, [^11C]elacridar c.421CC): 2.67 µmol/L and 1.83 µmol/L and 1.71 µmol/L and 2.74 µmol/L and 2.73 µmol/L
Tariquidar concentration in plasma of individual subjects ([9]; start of PET, [^11C]tariquidar c.421CA): 3.70 µmol/L and 2.61 µmol/L and 2.87 ^a µmol/L and 2.47 µmol/L and 2.80 µmol/L
Tariquidar concentration in plasma of individual subjects ([9]; start of PET, [^11C]tariquidar c.421CC): 2.91 µmol/L and 2.17 µmol/L and 2.65 µmol/L and 2.67 µmol/L and 2.64 µmol/L

baseline whole brain V T (Logan) lower in humans than in rats ([10]; human compared with rat): ~2 fold
V T (Logan) ([10]; human): 0.40
increase in V T (Logan) in scan 2 ([10]; human): 3.1 fold
fraction unbound (in vitro): < 0.01
SMILES: COc1cc2c(cc1OC)CN(CCc1ccc(NC(=O)c3cc(OC)c(OC)cc3NC(=O)c3cnc4ccccc4c3)cc1)CC2 [[^11C]tariquidar]
